Eight test systems from the supplement of paper PMC6045584 can be followed below.

± gives the standard deviation of the averaged measurements.

Compound in one assay: COc1cc([C@@H]2c3cc4c(cc3[C@@H](O[C@@H]3O[C@@H]5CO[C@@H](C)O[C@H]5[C@H](O)[C@H]3O)[C@H]3COC(=O)[C@H]23)OCO4)cc(OC)c1O [ETOPOSIDE]
Description: surviving fraction relative to DMSO-only wells; higher = less growth inhibition. The following applies: exposure time: 5 days. In short, it runs like this:
(§1)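 At 250–500 cells per well in 384-well plates, log-phase tumour cell lines were seeded and, 24 hours on, exposed continuously for five days to inhibitors at 0.5, 1, 5, 10, 50, 100, 500 and 1000 nM. Viability readout was CellTiter-Glo luminescence, reported as surviving fraction normalised to the median of DMSO-only wells.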

Compound in assay [1]: Cc1nc(Nc2n[nH]c3c2CN(C(=O)N[C@H](CN(C)C)c2ccccc2)C3(C)C)c2sccc2n1
The assay is described as above. Particulars: exposure time: 5 days. An outline of the steps: as §1

On to 22RV1 PROSTATE, for which the surviving fraction stood at 1.03 ± 0.084 with ETOPOSIDE (0.5 nM); 1 ± 0.083 with ETOPOSIDE (1 nM); 0.928 ± 0.059 with ETOPOSIDE (5 nM); 0.939 ± 0.023 with ETOPOSIDE (10 nM); 0.922 ± 0.046 in the assay with ETOPOSIDE (50 nM); 0.747 ± 0.047 with ETOPOSIDE (100 nM). Also, the surviving fraction amounted to 0.42 ± 0.034 in the assay with ETOPOSIDE (500 nM); 0.345 ± 0.03 in the assay with ETOPOSIDE (1000 nM); 0.963 ± 0.14 in assay [1] (0.5 nM); 0.783 ± 0.078 in assay [1] (1 nM); 0.334 ± 0.035 in assay [1] (5 nM); 0.321 ± 0.051 in assay [1] (10 nM). Moreover, the surviving fraction came out at 0.348 ± 0.018 in assay [1] (50 nM), 0.313 ± 0.058 in assay [1] (100 nM), 0.291 ± 0.058 in assay [1] (500 nM) and 0.27 ± 0.025 in assay [1] (1000 nM).
For 93VU HEADNECK, the surviving fraction stood at 1 ± 0.042 with ETOPOSIDE (0.5 nM); 1.07 ± 0.033 with ETOPOSIDE (1 nM); 1.11 ± 0.037 with ETOPOSIDE (5 nM); 1.05 ± 0.15 with ETOPOSIDE (10 nM); 1.03 ± 0.12 with ETOPOSIDE (50 nM); 1.14 ± 0.12 with ETOPOSIDE (100 nM). Further, the surviving fraction with ETOPOSIDE (500 nM) was 0.953 ± 0.054; with ETOPOSIDE (1000 nM), 0.896 ± 0.021; in assay [1] (0.5 nM) it was 1.01 ± 0.12; in assay [1] (1 nM) it was 0.883 ± 0.045; in assay [1] (5 nM), 0.39 ± 0.012; in assay [1] (10 nM), 0.298 ± 0.044. The surviving fraction in assay [1] (50 nM) came out at 0.24 ± 0.018; in assay [1] (100 nM) it was 0.195 ± 0.0078; in assay [1] (500 nM), 0.0973 ± 0.013; in assay [1] (1000 nM), 0.0723 ± 0.0095.
Turning to 143B BONE, the surviving fraction in the assay with ETOPOSIDE (0.5 nM) was 0.981 ± 0.021; with ETOPOSIDE (1 nM) it was 0.993; with ETOPOSIDE (5 nM) it was 1.01 ± 0.016; with ETOPOSIDE (10 nM), 1.03 ± 0.012; in the assay with ETOPOSIDE (50 nM) it was 1.01 ± 0.012; with ETOPOSIDE (100 nM) it was 0.979 ± 0.079. Further, the surviving fraction with ETOPOSIDE (500 nM) worked out at 0.484 ± 0.005; in the assay with ETOPOSIDE (1000 nM), 0.297; in assay [1] (0.5 nM) it was 0.96 ± 0.021; in assay [1] (1 nM) it was 0.969 ± 0.015; in assay [1] (5 nM) it was 0.726 ± 0.032; in assay [1] (10 nM) it was 0.494 ± 0.011. For the same test system, the surviving fraction in assay [1] (50 nM) amounted to 0.293 ± 0.033; in assay [1] (100 nM) it was 0.259 ± 0.016; in assay [1] (500 nM), 0.158 ± 0.0042; in assay [1] (1000 nM), 0.0825 ± 0.0035.
Turning to A549 LUNG, the surviving fraction stood at 0.989 ± 0.071 with ETOPOSIDE (0.5 nM); 0.99 ± 0.074 with ETOPOSIDE (1 nM); 0.988 ± 0.026 in the assay with ETOPOSIDE (5 nM); 0.976 ± 0.05 with ETOPOSIDE (10 nM); 1 ± 0.057 with ETOPOSIDE (50 nM); 1.09 ± 0.057 in the assay with ETOPOSIDE (100 nM). Further, the surviving fraction was determined as 0.958 ± 0.048 in the assay with ETOPOSIDE (500 nM); 0.67 ± 0.017 with ETOPOSIDE (1000 nM); 1.03 ± 0.051 in assay [1] (0.5 nM); 0.952 ± 0.064 in assay [1] (1 nM); 0.988 ± 0.064 in assay [1] (5 nM); 0.578 ± 0.021 in assay [1] (10 nM). Besides, the surviving fraction was found to be 0.38 ± 0.033 in assay [1] (50 nM), 0.311 ± 0.022 in assay [1] (100 nM), 0.2537 ± 0.0015 in assay [1] (500 nM) and 0.208 ± 0.011 in assay [1] (1000 nM).
Take ASKA SYNOVIAL: the surviving fraction with ETOPOSIDE (0.5 nM) worked out at 1.07 ± 0.14; with ETOPOSIDE (1 nM) it was 0.949 ± 0.012; with ETOPOSIDE (5 nM) it was 0.985 ± 0.052; with ETOPOSIDE (10 nM), 0.881 ± 0.036; in the assay with ETOPOSIDE (50 nM), 0.68 ± 0.049; with ETOPOSIDE (100 nM) it was 0.453 ± 0.015. Also, the surviving fraction in the assay with ETOPOSIDE (500 nM) turned out to be 0.3413 ± 0.0023; in the assay with ETOPOSIDE (1000 nM), 0.319 ± 0.0085; in assay [1] (0.5 nM), 0.673 ± 0.043; in assay [1] (1 nM), 1.09 ± 0.022; in assay [1] (5 nM) it was 0.4283 ± 0.0031; in assay [1] (10 nM), 1.16 ± 0.16. For the same test system, the surviving fraction turned out to be 0.43 ± 0.027 in assay [1] (50 nM), 1.28 ± 0.018 in assay [1] (100 nM), 0.3113 ± 0.0015 in assay [1] (500 nM) and 1.08 ± 0.051 in assay [1] (1000 nM).
Regarding BT20 BREAST, the surviving fraction in the assay with ETOPOSIDE (0.5 nM) was found to be 1.13 ± 0.073; with ETOPOSIDE (1 nM), 1.17 ± 0.089; with ETOPOSIDE (5 nM), 0.936 ± 0.17; with ETOPOSIDE (10 nM), 1.04 ± 0.13; in the assay with ETOPOSIDE (50 nM), 0.995 ± 0.098; with ETOPOSIDE (100 nM) it was 0.919 ± 0.14. The surviving fraction with ETOPOSIDE (500 nM) was 0.454 ± 0.11; with ETOPOSIDE (1000 nM), 0.211 ± 0.052; in assay [1] (0.5 nM), 1.21 ± 0.12; in assay [1] (1 nM), 1.11 ± 0.056; in assay [1] (5 nM), 1.34 ± 0.025; in assay [1] (10 nM), 1.28 ± 0.013. The surviving fraction in assay [1] (50 nM) was found to be 0.841 ± 0.11; in assay [1] (100 nM), 0.631 ± 0.12; in assay [1] (500 nM), 0.614 ± 0.076; in assay [1] (1000 nM) it was 0.542 ± 0.062.
On to BT549 BREAST, for which the surviving fraction in the assay with ETOPOSIDE (0.5 nM) was determined as 0.976 ± 0.13; with ETOPOSIDE (1 nM) it was 1.15 ± 0.075; with ETOPOSIDE (5 nM), 1.06 ± 0.13; with ETOPOSIDE (10 nM) it was 1.05 ± 0.12; with ETOPOSIDE (50 nM), 0.939 ± 0.069; with ETOPOSIDE (100 nM), 0.907 ± 0.13. Further, the surviving fraction with ETOPOSIDE (500 nM) was determined as 0.32 ± 0.027; in the assay with ETOPOSIDE (1000 nM), 0.198 ± 0.034; in assay [1] (0.5 nM) it was 1.02 ± 0.065; in assay [1] (1 nM), 0.928 ± 0.064; in assay [1] (5 nM), 0.299 ± 0.035; in assay [1] (10 nM) it was 0.232 ± 0.034. The surviving fraction in assay [1] (50 nM) is 0.0943 ± 0.0086; in assay [1] (100 nM) it was 0.092 ± 0.019; in assay [1] (500 nM), 0.0593 ± 0.012; in assay [1] (1000 nM) it was 0.052 ± 0.02.
Turning to CADOES1 SOFT TISSUE, the surviving fraction came to 0.948 ± 0.12 with ETOPOSIDE (0.5 nM); 0.908 ± 0.12 with ETOPOSIDE (1 nM); 0.966 ± 0.04 with ETOPOSIDE (5 nM); 0.97 ± 0.024 in the assay with ETOPOSIDE (10 nM); 0.819 ± 0.048 in the assay with ETOPOSIDE (50 nM); 0.977 ± 0.023 with ETOPOSIDE (100 nM). Also, the surviving fraction with ETOPOSIDE (500 nM) was determined as 0.735 ± 0.053; in the assay with ETOPOSIDE (1000 nM) it was 0.528 ± 0.069; in assay [1] (0.5 nM), 0.919 ± 0.029; in assay [1] (1 nM) it was 0.865 ± 0.035; in assay [1] (5 nM), 0.953 ± 0.11; in assay [1] (10 nM), 0.957 ± 0.14. The surviving fraction was found to be 0.764 ± 0.047 in assay [1] (50 nM), 0.721 ± 0.093 in assay [1] (100 nM), 0.401 ± 0.014 in assay [1] (500 nM) and 0.291 ± 0.026 in assay [1] (1000 nM).
